# Source: US20260324644A1, “HERBICIDE COMPOSITION AND A METHOD FOR BURNDOWN APPLICATION” (UPL Mauritius Limited, priority 2022, published 2026)
# Where two headings read alike, the source gives them in different places.
# How the values were obtained:
# plants = conditions: background statement; cited from earlier work
# [1] = test system: glutamine synthetase (GS); conditions: role: inhibitor, GS of bacteria and plants, cited from earlier work
# Parthenium hysterophrous = assay: Greenhouse trial, burndown (non-crop) weed control, Parthenium hysterophrous; format: in vivo; conditions: 495 g a.i./ha
# Description: (§1) Methodology: Greenhouse trials were conducted to evaluate the efficacy of the L-glufosinate on broad spectrum weeds at non-crop stage (burndown application).
# (§2) The soil used was medium black soil. All treatments were in 3 replications per treatment with a spray volume of about 150 L/ha.
# (§3) The percentage efficacy was calculated after 10 and 15 days of application (DAA). The herbicidal composition used was L-glufosinate (SL) at 150 g a.i./L. The application rate was 495 g a.i./ha. The target weeds were Amaranthus virids, A. spinosus, C. Album, E. geniculate, P. oleracea, P. hysterophrous, Brachiaria spp., D. retroflexa, E. colonum and the concentration of the herbicide and the results are recorded in Table 2.
# (§4) The percentage efficacy was calculated after 10 and 15 days of application (DAA). The herbicidal composition used was L-glufosinate (SL) at 150 g a.i./L and 280 g a.i./L. The application rate was 495 g a.i./ha. The target weeds were Amaranthus viridis, Amaranthus spinosus, Acalypha indica, Digera arvensis, Euphorbia geniculate, Portulaca oleracea, Parthenium hysterophrous, Phyllanthus maderaspatensis and the concentration of the herbicide and the results are recorded in Table 3.
# Digera arvensis = assay: Greenhouse trial, burndown (non-crop) weed control, Digera arvensis; format: in vivo; conditions: 495 g a.i./ha
# Description: as §1, §2, §4
# E. colonum = assay: Greenhouse trial, burndown (non-crop) weed control, E. colonum; format: in vivo; conditions: Example 2, SL 150 g a.i./L, 495 g a.i./ha
# Description: as §1, §2, §3
# Brachiaria spp. = assay: Greenhouse trial, burndown (non-crop) weed control, Brachiaria spp.; format: in vivo; conditions: for % Control: 495 g a.i./ha
# Description: as §1, §2
# (§5) The percentage efficacy was calculated after 10 days of application (DAA). The target weeds were Amaranthus viridis, E. geniculate, P. oleracea, Brachiaria spp. and the concentration of the herbicide and the results are recorded in Table 1.
# as §3
# (§6) The percentage efficacy was calculated after 10 and 15 days of application (DAA). The herbicidal composition used was L-glufosinate (SL) at 150 g a.i./L and 280 g a.i./L. The application rate was 495 g a.i./ha. The target weeds were Brachiaria spp., Dinebra retroflexa, Echonochloa colonum and the concentration of the herbicide and the results are recorded in Table 4.
# Portulaca oleracea = assay: Greenhouse trial, burndown (non-crop) weed control, Portulaca oleracea; format: in vivo; conditions: 495 g a.i./ha
# Description: as §1, §2, §3, §4
# [2] = test system: Phyllanthus maderaspatensis; assay: Greenhouse trial, burndown (non-crop) weed control, Phyllanthus maderaspatensis; format: in vivo; conditions: 495 g a.i./ha
# Description: as §1, §2, §4
# Euphorbia geniculate = assay: Greenhouse trial, burndown (non-crop) weed control, Euphorbia geniculate; format: in vivo; conditions: for % Control after 10 DAA: Example 1; for % Control: 495 g a.i./ha
# Description: as §1, §2, §5, §3, §4
# Acalypha indica = assay: Greenhouse trial, burndown (non-crop) weed control, Acalypha indica; format: in vivo; conditions: 495 g a.i./ha
# Description: as §1, §2, §4
# Amaranthus viridis = assay: Greenhouse trial, burndown (non-crop) weed control, Amaranthus viridis; format: in vivo; conditions: for % Control: 495 g a.i./ha
# Description: as §1, §2, §5, §3, §4
# Dinebra retroflexa = assay: Greenhouse trial, burndown (non-crop) weed control, Dinebra retroflexa; format: in vivo; conditions: 495 g a.i./ha
# Description: as §1, §2, §3, §6
# C. Album = assay: Greenhouse trial, burndown (non-crop) weed control, C. Album; format: in vivo; conditions: Example 2, SL 150 g a.i./L, 495 g a.i./ha
# Description: as §1, §2, §3
# Amaranthus spinosus = assay: Greenhouse trial, burndown (non-crop) weed control, Amaranthus spinosus; format: in vivo; conditions: 495 g a.i./ha
# Description: as §1, §2, §3, §4
# [3] = Example 3, SL 150 g a.i./L, 10 DAA
# [4] = Example 3, SL 150 g a.i./L, 15 DAA
# [5] = Example 3, SL 280 g a.i./L, 10 DAA
# [6] = Example 3, SL 280 g a.i./L, 15 DAA
# [7] = Example 1, L-glufosinate (SL) 200 g a.i./L, rate 150 g a.i./ha, 10 DAA
# [8] = Example 1, L-glufosinate (SL) 200 g a.i./L, rate 165 g a.i./ha, 10 DAA
# [9] = Example 1, L-glufosinate (SL) 200 g a.i./L, rate 200 g a.i./ha, 10 DAA
# [10] = Example 1, L-glufosinate (SL) 200 g a.i./L, rate 220 g a.i./ha, 10 DAA
# [11] = Example 1, L-glufosinate (SL) 280 g a.i./L, rate 150 g a.i./ha, 10 DAA
# [12] = Example 1, L-glufosinate (SL) 280 g a.i./L, rate 165 g a.i./ha, 10 DAA
# [13] = Example 1, L-glufosinate (SL) 280 g a.i./L, rate 200 g a.i./ha, 10 DAA
# [14] = Example 1, L-glufosinate (SL) 280 g a.i./L, rate 220 g a.i./ha, 10 DAA
# [15] = Example 2, SL 150 g a.i./L, 10 DAA
# [16] = Example 2, SL 150 g a.i./L, 15 DAA
compound,measurement,setting,value
CP(=O)(O)CC[C@@H](N)C(=O)O [D-glufosinate],herbicidal activity,plants,not herbicidally active
same,inhibition of glutamine synthetase (GS),[1],not a GS inhibitor
"CP(=O)(O)CC[C@H](N)C(=O)O.N [L-glufosinate, (S)-2-amino-4-(hydroxy(methyl)phosphonoyl)butanoic acid]",% Control,"Parthenium hysterophrous; Example 2, SL 150 g a.i./L, 10 DAA, P. hysterophrous",100%
same,% Control,"Parthenium hysterophrous; Example 2, SL 150 g a.i./L, 15 DAA, P. hysterophrous",100%
same,% Control,"Parthenium hysterophrous; Example 3, SL 150 g a.i./L, 10 DAA, Parthenium hysterophrous",93%
same,% Control,"Parthenium hysterophrous; Example 3, SL 150 g a.i./L, 15 DAA, Parthenium hysterophrous",93%
same,% Control,"Parthenium hysterophrous; Example 3, SL 280 g a.i./L, 10 DAA, Parthenium hysterophrous",97%
same,% Control,"Parthenium hysterophrous; Example 3, SL 280 g a.i./L, 15 DAA, Parthenium hysterophrous",97%
same,herbicidal activity,plants,herbicidally active
same,% Control,Digera arvensis; [3],100%
same,% Control,Digera arvensis; [4],100%
same,% Control,Digera arvensis; [5],100%
same,% Control,Digera arvensis; [6],100%
same,% Control,E. colonum; 10 DAA,90%
same,% Control,E. colonum; 15 DAA,90%
same,% Control after 10 DAA,Brachiaria spp.; [7],100%
same,% Control after 10 DAA,Brachiaria spp.; [8],100%
same,% Control after 10 DAA,Brachiaria spp.; [9],100%
same,% Control after 10 DAA,Brachiaria spp.; [10],100%
same,% Control after 10 DAA,Brachiaria spp.; [11],100%
same,% Control after 10 DAA,Brachiaria spp.; [12],100%
same,% Control after 10 DAA,Brachiaria spp.; [13],100%
same,% Control after 10 DAA,Brachiaria spp.; [14],100%
same,% Control,Brachiaria spp.; [15],93%
same,% Control,Brachiaria spp.; [16],100%
same,% Control,"Brachiaria spp.; Example 4, SL 150 g a.i./L, 10 DAA",100%
same,% Control,"Brachiaria spp.; Example 4, SL 150 g a.i./L, 15 DAA",100%
same,% Control,"Brachiaria spp.; Example 4, SL 280 g a.i./L, 10 DAA",100%
same,% Control,"Brachiaria spp.; Example 4, SL 280 g a.i./L, 15 DAA",100%
same,% Control,"Portulaca oleracea; Example 2, SL 150 g a.i./L, 10 DAA, P. oleracea",88%
same,% Control,"Portulaca oleracea; Example 2, SL 150 g a.i./L, 15 DAA, P. oleracea",82%
same,% Control,"Portulaca oleracea; Example 3, SL 150 g a.i./L, 10 DAA, Portulaca oleracea",100%
same,% Control,"Portulaca oleracea; Example 3, SL 150 g a.i./L, 15 DAA, Portulaca oleracea",100%
same,% Control,"Portulaca oleracea; Example 3, SL 280 g a.i./L, 10 DAA, Portulaca oleracea",100%
same,% Control,"Portulaca oleracea; Example 3, SL 280 g a.i./L, 15 DAA, Portulaca oleracea",100%
same,inhibition of glutamine synthetase (GS),[1]; listed as L-isomer of glufosinate,competitive inhibitor
same,inhibition of glutamine synthetase (GS),[1]; listed as L-isomer,only the L-isomer inhibits GS
same,% Control,[2]; [3],93%
same,% Control,[2]; [4],100%
same,% Control,[2]; [5],97%
same,% Control,[2]; [6],97%
same,% Control after 10 DAA,"Euphorbia geniculate; L-glufosinate (SL) 200 g a.i./L, rate 150 g a.i./ha, 10 DAA, E. geniculate",93%
same,% Control after 10 DAA,"Euphorbia geniculate; L-glufosinate (SL) 200 g a.i./L, rate 165 g a.i./ha, 10 DAA, E. geniculate",95%
same,% Control after 10 DAA,"Euphorbia geniculate; L-glufosinate (SL) 200 g a.i./L, rate 200 g a.i./ha, 10 DAA, E. geniculate",97%
same,% Control after 10 DAA,"Euphorbia geniculate; L-glufosinate (SL) 200 g a.i./L, rate 220 g a.i./ha, 10 DAA, E. geniculate",93%
same,% Control after 10 DAA,"Euphorbia geniculate; L-glufosinate (SL) 280 g a.i./L, rate 150 g a.i./ha, 10 DAA, E. geniculate",92%
same,% Control after 10 DAA,"Euphorbia geniculate; L-glufosinate (SL) 280 g a.i./L, rate 165 g a.i./ha, 10 DAA, E. geniculate",90%
same,% Control after 10 DAA,"Euphorbia geniculate; L-glufosinate (SL) 280 g a.i./L, rate 200 g a.i./ha, 10 DAA, E. geniculate",95%
same,% Control after 10 DAA,"Euphorbia geniculate; L-glufosinate (SL) 280 g a.i./L, rate 220 g a.i./ha, 10 DAA, E. geniculate",93%
same,% Control,"Euphorbia geniculate; Example 2, SL 150 g a.i./L, 10 DAA, E. geniculate",100%
same,% Control,"Euphorbia geniculate; Example 2, SL 150 g a.i./L, 15 DAA, E. geniculate",100%
same,% Control,"Euphorbia geniculate; Example 3, SL 150 g a.i./L, 10 DAA, Euphorbia geniculate",80%
same,% Control,"Euphorbia geniculate; Example 3, SL 150 g a.i./L, 15 DAA, Euphorbia geniculate",100%
same,% Control,"Euphorbia geniculate; Example 3, SL 280 g a.i./L, 10 DAA, Euphorbia geniculate",90%
same,% Control,"Euphorbia geniculate; Example 3, SL 280 g a.i./L, 15 DAA, Euphorbia geniculate",100%
same,% Control,Acalypha indica; [3],80%
same,% Control,Acalypha indica; [4],100%
same,% Control,Acalypha indica; [5],87%
same,% Control,Acalypha indica; [6],100%
same,% Control after 10 DAA,Amaranthus viridis; [7],100%
same,% Control after 10 DAA,Amaranthus viridis; [8],100%
same,% Control after 10 DAA,Amaranthus viridis; [9],100%
same,% Control after 10 DAA,Amaranthus viridis; [10],100%
same,% Control after 10 DAA,Amaranthus viridis; [11],100%
same,% Control after 10 DAA,Amaranthus viridis; [12],100%
same,% Control after 10 DAA,Amaranthus viridis; [13],100%
same,% Control after 10 DAA,Amaranthus viridis; [14],100%
same,% Control,Amaranthus viridis; [15],100%
same,% Control,Amaranthus viridis; [16],100%
same,% Control,Amaranthus viridis; [3],100%
same,% Control,Amaranthus viridis; [4],100%
same,% Control,Amaranthus viridis; [5],100%
same,% Control,Amaranthus viridis; [6],100%
same,% Control,"Dinebra retroflexa; Example 2, SL 150 g a.i./L, 10 DAA, D. retroflexa",100%
same,% Control,"Dinebra retroflexa; Example 2, SL 150 g a.i./L, 15 DAA, D. retroflexa",100%
same,% Control,"Dinebra retroflexa; Example 4, SL 150 g a.i./L, 10 DAA, Dinebra retroflexa",83%
same,% Control,"Dinebra retroflexa; Example 4, SL 150 g a.i./L, 15 DAA, Dinebra retroflexa",70%
same,% Control,"Dinebra retroflexa; Example 4, SL 280 g a.i./L, 10 DAA, Dinebra retroflexa",83%
same,% Control,"Dinebra retroflexa; Example 4, SL 280 g a.i./L, 15 DAA, Dinebra retroflexa",70%
same,% Control,C. Album; 10 DAA,100%
same,% Control,C. Album; 15 DAA,100%
same,% Control,"Amaranthus spinosus; Example 2, SL 150 g a.i./L, 10 DAA, A. spinosus",100%
same,% Control,"Amaranthus spinosus; Example 2, SL 150 g a.i./L, 15 DAA, A. spinosus",100%
same,% Control,"Amaranthus spinosus; Example 3, SL 150 g a.i./L, 10 DAA, Amaranthus spinosus",100%
same,% Control,"Amaranthus spinosus; Example 3, SL 150 g a.i./L, 15 DAA, Amaranthus spinosus",100%
same,% Control,"Amaranthus spinosus; Example 3, SL 280 g a.i./L, 10 DAA, Amaranthus spinosus",100%
same,% Control,"Amaranthus spinosus; Example 3, SL 280 g a.i./L, 15 DAA, Amaranthus spinosus",100%
